Assay results published in PubChem BioAssay AID2060356 (Molecular Pharmacology Branch, DTP, NCI, 2025).
Values joined by “and” are separate entries in the source; they are usually repeats but may differ in a detail not shown here. Equal entries are not always repeated.

Tested on: PDC tumor spheroids with HUVEC/MSC, viability
Test: Anticancer human tumor 439559-082-T-J2-PDC patient-derived colon adenocarcinoma cell line growth inhibition [TAK]
Details: for viability, T/C: stronger effect = lower value
From the text: Combinatorial screen of targeted agents with TAK-243 and ipatasertib in multi-cell type tumor spheroids
A high-throughput screen of multi-cell type tumor spheroids was designed to identify active combinations of targeted small molecules and TAK-243 or ipatasertib. Complex spheroids include a stromal component modeled by human endothelial cells (HUVEC) and fibroblasts modeled by human mesenchymal stem cells (MSCs). The concentration ranges selected for each drug and investigational agent were based upon clinically achievable concentrations if the clinical Cmax of the agent was known.
Compounds. The drugs and investigational agents: TAK-243 (785004), ipatasertib (767898), everolimus (733504), selumetinib (741078), bortezomib (756655), trametinib (758246), ixazomib (758254), vemurafenib (761431), dabrafenib (764134), sapanisertib (764658), alpelisib (765974), and copanlisib (816437), were obtained from the National Cancer Institute (NCI) Developmental Therapeutics Program Chemical Repository. The FDA-approved anticancer drug set is available from the NCI Developmental Therapeutics Program. […] The stock solutions were prepared in dimethyl sulfoxide (DMSO, Sigma-Aldrich, St. Louis, MO, cat. D2650) at 800-fold the tested concentration and stored at -70 degrees C prior to their use. All drugs and investigational agents were tested over a range starting from a high concentration at or near the clinical Cmax and decreasing in half-log increments. If the clinical Cmax for an agent had not been determined, the highest concentration tested was 10 microM.
NCI60 Cell Culture. NCI60 cell lines were obtained from the NCI Developmental Therapeutics Program Tumor Repository. For each lot of cells, the Repository performed Applied Biosystems AmpFLSTR Identifiler testing with PCR amplification to confirm consistency with the published Identifier STR profile for each cell line. Cells were kept in continuous culture for no more than 20 passages. The optimal seeding densities for each of the cell lines at each time point assessed were determined prior to performing the concentration response studies. Briefly, the NCI60 human tumor lines were grown as monolayers in RPMI 1640 medium supplemented with 10% FBS and 2 mmol/L L-glutamine.
An additional 2 lines were from the NCI60 cell line panel including melanomas, MALME-3M and SK-MEL-2. Pooled donor human umbilical vein endothelial cells (HUVEC, Lonza, cat. CC-2519) and human mesenchymal stem cells (hMSC, Lonza, cat. PT-2501) were purchased from Lonza (Walkersville, MD).
PDMR cell lines were grown in complete medium (DC medium): Dulbecco's modified Eagle's medium (DMEM)/F12 supplemented with 5% fetal bovine serum (FBS), 2 mM L-glutamine, 100 U/mL penicillin and 100 µg/ml streptomycin, 0.4 µg/ml hydrocortisone, 10 ng/ml epidermal growth factor (EGF) recombinant human protein, 24 µg/mL adenine, and 0.1 mg/mL primocin. During culture from frozen stock vials, PDMR cells were cultured in the same medium containing 10 µM Y-27632 (see Table 3). The PDCs were cultured in complete DMEM/F12 media without 10 microM Y-27632 dihydrochloride for at least two passages prior to the screen. The pooled donor HUVEC and hMSC were cultured in endothelial cell growth medium 2 (PromoCell, Heidelberg, Germany, cat. C-22011) and mesenchymal stem cell growth medium 2 (PromoCell, cat. C-28009), respectively. For all experiments, HUVEC and hMSC were used at passages </=5.
For the pre-screen, cell seeding densities were determined from a titration spanning the range from 5,000 to 313 cells per well. The mct-spheroids including 60% malignant cells, 25% HUVEC and 15% MSC dispensed as a mixture into U-bottom Ultra-Low Attachment 384-well plates (Corning, NY)
High-throughput Drug Combination Screening.
Prior to their inoculation into 384-well plates, malignant cells, HUVEC, and hMSC were removed from T flasks using TrypLE express (Thermo Fisher Scientific, cat. 12605036) and harvested by centrifugation for 5 min at 233 x g. […]

[1] = curve of first compound, second compound 0.3 µM
[2] = curve of first compound, second compound 0.949 µM
[3] = curve of first compound, second compound 3 µM
[4] = curve of first compound, second compound 9.49 µM
[5] = curve of first compound, second compound 30 µM
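Further: spheroids exposed to drugs for seven days before readout.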

CC(=O)Nc1cccc(-n2c(=O)n(C3CC3)c(=O)c3c(Nc4ccc(I)cc4F)n(C)c(=O)c(C)c32)c1 + CC(C)NCC(C(=O)N1CCN(c2ncnc3c2C(C)CC3O)CC1)c1ccc(Cl)cc1
IC50 [1]: > 30 nM | IC50 [2]: > 30 nM | IC50 [3]: > 30 nM | IC50 [4]: > 30 nM | IC50 [5]: > 30 nM | viability, T/C (second compound 0.3 µM, first compound 94.9 pM): 105% | viability, T/C (second compound 0.3 µM, first compound 0.0003 µM): 97.6% | viability, T/C (second compound 0.3 µM, first compound 0.000949 µM): 85.8% | viability, T/C (second compound 0.3 µM, first compound 0.003 µM): 74.3% | viability, T/C (second compound 0.3 µM, first compound 0.00949 µM): 70.5% | viability, T/C (second compound 0.3 µM, first compound 0.03 µM): 62.1% | viability, T/C (second compound 0.949 µM, first compound 94.9 pM): 90.4% | viability, T/C (second compound 0.949 µM, first compound 0.0003 µM): 89.7% | viability, T/C (second compound 0.949 µM, first compound 0.000949 µM): 93.9% | viability, T/C (second compound 0.949 µM, first compound 0.003 µM): 75.1% | viability, T/C (second compound 0.949 µM, first compound 0.00949 µM): 66.6% | viability, T/C (second compound 0.949 µM, first compound 0.03 µM): 62.2% | viability, T/C (second compound 3 µM, first compound 94.9 pM): 102% | viability, T/C (second compound 3 µM, first compound 0.0003 µM): 98.8% | viability, T/C (second compound 3 µM, first compound 0.000949 µM): 76.8% | viability, T/C (second compound 3 µM, first compound 0.003 µM): 77.2% | viability, T/C (second compound 3 µM, first compound 0.00949 µM): 72.9% | viability, T/C (second compound 3 µM, first compound 0.03 µM): 61% | viability, T/C (second compound 9.49 µM, first compound 94.9 pM): 88.7% | viability, T/C (second compound 9.49 µM, first compound 0.0003 µM): 92.9% | viability, T/C (second compound 9.49 µM, first compound 0.000949 µM): 84.4% | viability, T/C (second compound 9.49 µM, first compound 0.003 µM): 80.5% | viability, T/C (second compound 9.49 µM, first compound 0.00949 µM): 66.9% | viability, T/C (second compound 9.49 µM, first compound 0.03 µM): 55.1% | viability, T/C (second compound 30 µM, first compound 94.9 pM): 89% | viability, T/C (second compound 30 µM, first compound 0.0003 µM): 91.8% | viability, T/C (second compound 30 µM, first compound 0.000949 µM): 81.7% | viability, T/C (second compound 30 µM, first compound 0.003 µM): 73.5% | viability, T/C (second compound 30 µM, first compound 0.00949 µM): 69.2% | viability, T/C (second compound 30 µM, first compound 0.03 µM): 54.8%

COc1c(OCCCN2CCOCC2)ccc2c3n(c(=NC(=O)c4cnc(N)nc4)nc12)CCN3 + CC(C)NCC(C(=O)N1CCN(c2ncnc3c2C(C)CC3O)CC1)c1ccc(Cl)cc1
IC50 [1]: > 1000 nM | IC50 [2]: > 1000 nM | IC50 [3]: > 1000 nM | IC50 [4]: > 1000 nM | IC50 [5]: > 1000 nM | viability, T/C (second compound 0.3 µM, first compound 0.00316 µM): 98.6% | viability, T/C (second compound 0.3 µM, first compound 0.01 µM): 89.5% | viability, T/C (second compound 0.3 µM, first compound 0.0316 µM): 71.3% | viability, T/C (second compound 0.3 µM, first compound 0.1 µM): 73.3% | viability, T/C (second compound 0.3 µM, first compound 0.316 µM): 61.8% | viability, T/C (second compound 0.3 µM, first compound 1 µM): 66.9% | viability, T/C (second compound 0.949 µM, first compound 0.00316 µM): 98.5% | viability, T/C (second compound 0.949 µM, first compound 0.01 µM): 91.5% | viability, T/C (second compound 0.949 µM, first compound 0.0316 µM): 76.2% | viability, T/C (second compound 0.949 µM, first compound 0.1 µM): 72.4% | viability, T/C (second compound 0.949 µM, first compound 0.316 µM): 66.8% | viability, T/C (second compound 0.949 µM, first compound 1 µM): 65.8% | viability, T/C (second compound 3 µM, first compound 0.00316 µM): 85.1% | viability, T/C (second compound 3 µM, first compound 0.01 µM): 88.4% | viability, T/C (second compound 3 µM, first compound 0.0316 µM): 75.5% | viability, T/C (second compound 3 µM, first compound 0.1 µM): 71.3% | viability, T/C (second compound 3 µM, first compound 0.316 µM): 66.8% | viability, T/C (second compound 3 µM, first compound 1 µM): 69.7% | viability, T/C (second compound 9.49 µM, first compound 0.00316 µM): 90.6% | viability, T/C (second compound 9.49 µM, first compound 0.01 µM): 80.8% | viability, T/C (second compound 9.49 µM, first compound 0.0316 µM): 80.9% | viability, T/C (second compound 9.49 µM, first compound 0.1 µM): 73.7% | viability, T/C (second compound 9.49 µM, first compound 0.316 µM): 67.8% | viability, T/C (second compound 9.49 µM, first compound 1 µM): 70.9% | viability, T/C (second compound 30 µM, first compound 0.00316 µM): 83.9% | viability, T/C (second compound 30 µM, first compound 0.01 µM): 79% | viability, T/C (second compound 30 µM, first compound 0.0316 µM): 72.6% | viability, T/C (second compound 30 µM, first compound 0.1 µM): 68.9% | viability, T/C (second compound 30 µM, first compound 0.316 µM): 64.5% | viability, T/C (second compound 30 µM, first compound 1 µM): 72.7%

CCCS(=O)(=O)Nc1ccc(F)c(C(=O)c2c[nH]c3ncc(-c4ccc(Cl)cc4)cc23)c1F
viability, T/C (compound 0.316 µM): 114% and 106% | viability, T/C (compound 1 µM): 109% and 102% | viability, T/C (compound 3.16 µM): 97.3% and 102% | viability, T/C (compound 10 µM): 87.2% and 71.7% | viability, T/C (compound 31.6 µM): 103% and 94.9% | viability, T/C (compound 100 µM): 93.9% and 95.7% | IC50 (curve of compound): > 100000 nM
